Here are results for 42 compounds from patent publication US20250025443A1, “COMPOUNDS AND METHODS FOR TREATING CORONA VIRUSES” (CLEAR CREEK BIO, INC., priority 2021, published 2025).

The first assay concerns the target SARS-CoV-2 Papain-Like Protease (PLpro) (Severe acute respiratory syndrome coronavirus 2 (2019-nCoV) (SARS-CoV-2), UniProt P0DTD1). Briefly: biochemical. Particulars: PLpro 6.25 nM, substrate 25 μM, 60 min at 25° C.; for more potent compounds PLpro 1 nM, 120 min; read-out: PLpro IC50.
With `Cc1ccc(O)cc1C(=O)N[C@H](C)c1cccc2ccccc12` [Compound 101, (R)-5-Hydroxy-2-methyl-N-(1-(naphthalen-1-yl)ethyl)benzamide], the IC50 (in general, the point on the concentration scale where inhibition reaches its midpoint) lay within 1 to 5 µM. `COc1ccc(Cl)c(C(=O)N[C@H](C)c2cccc3ccccc23)c1` [Compound 132, (R)-2-Chloro-5-methoxy-N-(1-(naphthalen-1-yl)ethyl)benzamide]: the IC50 was over 5 µM.

Staying with this assay, now noted: PLpro enzymatic fluorescence assay; class symbols; read-out: PLpro IC50.
For the compound `Cc1ccc(O[C@@H]2CCCC[C@H]2N)cc1CNC1(c2cccc3ccccc23)CC1` (single isomer, unassigned) [Compound 429], the IC50 lay in the range of 0.1 to 1 µM. As to `Cc1ccc(OC[C@@H]2CCN2C)cc1C(=O)NC1(c2cc(-c3ccco3)cc3ncccc23)CC1` (stereo in doubt) [Compound 604, N-(1-(7-(Furan-2-yl)quinolin-5-yl)cyclopropyl)-2-methyl-5-((1-methylazetidin-2-yl)methoxy)benzamide], the IC50 was under 0.1 µM. Take `Cc1ccc([N+](=O)[O-])cc1C(=O)N[C@H](C)c1cccc2ccccc12` [Compound 104, (R)-2-Methyl-N-(1-(naphthalen-1-yl)ethyl)-5-nitrobenzamide]: the IC50 was over 5 µM.

As to `Cc1ccc([N+](=O)[O-])cc1CNC(c1cccc2ccccc12)C1COC1` (stereo not drawn) [Compound 110], the IC50 is over 5 µM. Regarding `COCCC(NCc1cc([N+](=O)[O-])ccc1C)c1cccc2ccccc12` (stereo not drawn) [Compound 113], the IC50 was over 5 µM. Same read-out and setting: as for `Cc1ccc([N+](=O)[O-])cc1CNC(c1cccc2ccccc12)C1CCOC1` (stereo not drawn) [Compound 123], the figure is over 5 µM; as for `CC(c1cccc2ccccc12)N1CCc2ccc([N+](=O)[O-])cc2C1` (stereo not drawn) [Compound 127, 2-(1-(Naphthalen-1-yl)ethyl)-7-nitro-1,2,3,4-tetrahydroisoquinoline], over 5 µM.

The assay is the same for the next values; noted with them: SARS-CoV-2 PLpro enzymatic fluorescence assay; read-out: PLpro IC50.
For “2-Methyl-5-((2-methylazetidin-2-yl)methoxy)-N-(1-(naphthalen-1-yl)cyclopropyl)benzamide [Compound 394]”, the half-inhibitory concentration (IC50) was under 0.1 µM. In the case of “2-Methyl-N-(1-(naphthalen-1-yl)cyclopropyl)-5-(piperidin-2-ylmethoxy)benzamide [Compound 339]”, the IC50 was under 0.1 µM. As for “5-(2-Hydroxyethoxy)-2-methyl-N-(1-(naphthalen-1-yl)cyclopropyl)benzamide [Compound 393]”, the IC50 was in the range of 0.1 to 1 µM. Regarding “5-((1-(2-Hydroxyethyl)azetidin-2-yl)methoxy)-2-methyl-N-(1-(naphthalen-1-yl)cyclopropyl)benzamide [Compound 341]”, the IC50 is under 0.1 µM. Take `Cc1ccc(O[C@@H]2CC[C@@H]2N)cc1C(=O)NC1(c2cccc3ccccc23)CC1` (racemic) [Compound 406, rac-5-((1S,2R)-2-Aminocyclobutoxy)-2-methyl-N-(1-(naphthalen-1-yl)cyclopropyl)benzamide]: the IC50 was under 0.1 µM. For `Cc1ccc(OC[C@H]2C[C@@H](O)CN2)cc1C(=O)NC1(c2cccc3ccccc23)CC1` (racemic) [Compound 416, rac-5-(((2R,4R)-4-Hydroxypyrrolidin-2-yl)methoxy)-2-methyl-N-(1-(naphthalen-1-yl)cyclopropyl)benzamide], the IC50 is under 0.1 µM.

On to `C=Cc1cc(C2(NC(=O)c3cc(O[C@@H](C)[C@@H]4CCN4C)ccc3C)CC2)c2cccnc2c1` (relative stereo) [Compound 757, 2-Methyl-5-((S)-1-((S)-1-methylazetidin-2-yl)ethoxy)-N-(1-(7-vinylquinolin-5-yl)cyclopropyl)benzamide], for which the IC50 was under 0.1 µM. Still for that read-out and setting: the value for `Cc1ccc(OC[C@H]2C[C@@H](F)CN2)cc1C(=O)NC1(c2cccc3ccccc23)CC1` (single isomer, unassigned) [Compound 438] was under 0.1 µM; that for `Cc1ccc(OC[C@H]2C[C@H](O)CN2C)cc1C(=O)NC1(c2cccc3ccccc23)CC1` (single isomer, unassigned) [Compound 439] was under 0.1 µM; that for `Cc1ccc(OC[C@H]2C[C@@H](O)CN2C)cc1C(=O)NC1(c2cccc3ccccc23)CC1` (single isomer, unassigned) [Compound 440] was under 0.1 µM. On the same count and under the same terms, as for `Cc1ccc(OC[C@H]2C[C@H](F)CN2C)cc1C(=O)NC1(c2cccc3ccccc23)CC1` (single isomer, unassigned) [Compound 441], the figure is under 0.1 µM; as for `Cc1ccc(OC[C@H]2C[C@H](F)CN2)cc1C(=O)NC1(c2cccc3ccccc23)CC1` (single isomer, unassigned) [Compound 442], under 0.1 µM. Regarding `Cc1ccc(NS(C)(=O)=O)cc1C(=O)N[C@H](C)c1cccc2ccccc12` [Compound 100, (R)-2-Methyl-5-(methylsulfonamido)-N-(1-(naphthalen-1-yl)ethyl)benzamide], the IC50 was over 5 µM. The same measure, in the same setting: as for `Cc1cc2nc[nH]c2cc1C(=O)N[C@H](C)c1cccc2ccccc12` [Compound 102, (R)-5-Methyl-N-(1-(naphthalen-1-yl)ethyl)-1H-benzo[d]imidazole-6-carboxamide], the figure is 1 to 5 µM; as for `Cc1ccc([N+](=O)[O-])cc1C(=O)NC(c1cccc2ccccc12)C1CCOCC1` (stereo not drawn) [Compound 105, 2-Methyl-N-(naphthalen-1-yl(tetrahydro-2H-pyran-4-yl)methyl)-5-nitrobenzamide], over 5 µM. As to `Cc1ccc(N)cc1CN[C@H](C)c1cccc2ccccc12` [Compound 106, (R)-4-Methyl-3-(((1-(naphthalen-1-yl)ethyl)amino)methyl) aniline], the IC50 was over 5 µM. As for `Cc1ccc(Nc2nccs2)cc1C(=O)N[C@H](C)c1cccc2ccccc12` [Compound 107, (R)-2-Methyl-N-(1-(naphthalen-1-yl)ethyl)-5-(thiazol-2-ylamino)benzamide], the IC50 is over 5 µM. The same measure, in the same setting: the value for `COCC(NC(=O)c1cc([N+](=O)[O-])ccc1C)c1cccc2ccccc12` (stereo not drawn) [Compound 108, N-(2-Methoxy-1-(naphthalen-1-yl)ethyl)-2-methyl-5-nitrobenzamide] was over 5 µM; that for `Cc1ccc(N)cc1C(=O)NC(c1cccc2ccccc12)C1CCOCC1` (stereo not drawn) [Compound 109, 5-Amino-2-methyl-N-(naphthalen-1-yl(tetrahydro-2H-pyran-4-yl)methyl)benzamide] was over 5 µM; that for `Cc1ccc(NC2CNC2)cc1C(=O)N1Cc2ccc(-c3ccc(CN4CCCC4)s3)cc2C1` [Compound 111, (5-(Azetidin-3-ylamino)-2-methylphenyl)(5-(5-(pyrrolidin-1-ylmethyl)thiophen-2-yl)isoindolin-2-yl)methanone] was over 5 µM.

`COc1ncccc1Nc1ccc(C)c(C(=O)N[C@H](C)c2cccc3ccccc23)c1` [Compound 115, (R)-5-((2-Methoxypyridin-3-yl)amino)-2-methyl-N-(1-(naphthalen-1-yl)ethyl)benzamide]: the IC50 fell in the range of 1 to 5 µM. Still for that read-out and setting: the value for `Cc1ccc(NC2CNC2)cc1C(=O)NCc1ccc(-c2ccc(CN3CCCC3)s2)cc1` [Compound 116, 5-(Azetidin-3-ylamino)-2-methyl-N-(4-(5-(pyrrolidin-1-ylmethyl)thiophen-2-yl)benzyl)benzamide] was over 5 µM. For the compound `COCC(NC(=O)c1cc(N)ccc1C)c1cccc2ccccc12` (stereo not drawn) [Compound 118, 5-Amino-N-(2-methoxy-1-(naphthalen-1-yl)ethyl)-2-methylbenzamide], the IC50 is over 5 µM.

On to `Cc1ccc(Nc2ccc[nH]c2=O)cc1C(=O)N[C@H](C)c1cccc2ccccc12` [Compound 119, (R)-2-Methyl-N-(1-(naphthalen-1-yl)ethyl)-5-((2-oxo-1,2-dihydropyridin-3-yl)amino)benzamide], for which the IC50 was in the range of 1 to 5 µM. Take `Cc1ccc(NC2CNC2)cc1C(=O)NCc1cccc(-c2ccc(CN3CCCC3)s2)c1` [Compound 120, 5-(Azetidin-3-ylamino)-2-methyl-N-(3-(5-(pyrrolidin-1-ylmethyl)thiophen-2-yl)benzyl)benzamide]: the IC50 was over 5 µM.

Take `Cc1ccc(Nc2cn[nH]c2)cc1C(=O)N[C@H](C)c1cccc2ccccc12` [Compound 121, (R)-5-((1H-Pyrazol-4-yl)amino)-2-methyl-N-(1-(naphthalen-1-yl)ethyl)benzamide]: the IC50 was 1 to 5 µM. In the case of `C[C@@H](NC(=O)c1ccc2cn[nH]c2c1)c1cccc2ccccc12` [Compound 124, (R)-N-(1-(naphthalen-1-yl)ethyl)-1H-indazole-6-carboxamide], the IC50 is over 5 µM.

For the compound `C[C@@H](NC(=O)c1ccc2nc[nH]c2c1)c1cccc2ccccc12` [Compound 125, (R)-N-(1-(Naphthalen-1-yl)ethyl)-1H-benzo[d]imidazole-6-carboxamide], the IC50 is over 5 µM. For `Cc1cc2nc[nH]c2cc1C(=O)N[C@H](C)c1cccc(-c2ccc(CN3CCCC3)s2)c1` [Compound 126, (R)-5-Methyl-N-(1-(3-(5-(pyrrolidin-1-ylmethyl)thiophen-2-yl)phenyl)ethyl)-1H-benzo[d]imidazole-6-carboxamide], the IC50 lay in the range of 1 to 5 µM. For the compound `Cc1cc2nc(CN)[nH]c2cc1C(=O)N[C@H](C)c1cccc2ccccc12` [Compound 128, (R)-2-(Aminomethyl)-5-methyl-N-(1-(naphthalen-1-yl)ethyl)-1H-benzo[d]imidazole-6-carboxamide], the IC50 lay in the range of 0.1 to 1 µM.

Regarding `Cc1cc2nc(C3CNC3)[nH]c2cc1C(=O)N[C@H](C)c1cccc2ccccc12` [Compound 131, (R)-2-(Azetidin-3-yl)-5-methyl-N-(1-(naphthalen-1-yl)ethyl)-1H-benzo[d]imidazole-6-carboxamide], the IC50 lay in the range of 1 to 5 µM. On the same count and under the same terms, the value for `Cc1cc2nc[nH]c2cc1C(=O)N[C@H](C)c1cccc(-c2ccc(CN[C@H]3CC[C@@H](O)C3)s2)c1` [Compound 134, N-((R)-1-(3-(5-((((1S,3R)-3-hydroxycyclopentyl)amino)methyl)thiophen-2-yl)phenyl)ethyl)-5-methyl-1H-benzo[d]imidazole-6-carboxamide] was 0.1 to 1 µM. As for `CC(c1cccc2ccccc12)N1CCc2ccc(N)cc2C1` (stereo not drawn) [Compound 135, 2-(1-(Naphthalen-1-yl)ethyl)-1,2,3,4-tetrahydroisoquinolin-7-amine], the IC50 lay within 1 to 5 µM.
